Experimental findings from patent US20120149708A1, “MODULATORS OF VIRAL TRANSCRIPTION, AND METHODS AND COMPOSITIONS THEREWITH” (George Mason University, priority 2010, published 2012) are described below.

For orientation: inhibition means the relative decrease from the control value, in per cent.

Entries after “also recorded” stand apart in the source; their conditions may differ.

The test system of series [1] is OM10.1 cells (HIV-1 infected). The series can be described thus: Cell viability by trypan blue exclusion, 48 hours. Type of series: cell-based. How it is done:
(§1) In brief, the inhibition studies were carried out as follows. HIV-1 infected cells ACH2, J1.1, OM10.1, U1 and uninfected CEM, Jurkat T-cells, and U937 were cultured in media. The appropriate inhibitor was added at a concentration of 10 μM. Cells were treated for 48 hours and cell viability was determined using trypan blue exclusion method. Results of such a screen for 19 inhibitors is shown in Table 1 where percent dead cells are indicated each drug tested.
(§2) Again HIV-1 infected and uninfected cells were treated with eighteen Formula I compounds at a drug concentration of 50 nm. Forty-eight hours after treatment, cytotoxicity was determined by trypan blue dye exclusion. Percent inhibition was calculated after obtaining the cell density for each well of the tissue culture plate at the end of 48 hrs.

For series [2], the system named is U1 cells (HIV-1 infected). The series can be described thus: Cell viability by trypan blue exclusion, 48 hours. Type of series: cell-based. How it is done: as §1, §2
The test system of series [3] is J1.1 cells (HIV-1 infected). In words: Cell viability by trypan blue exclusion, 48 hours. Type of series: cell-based. How it is done:
as §1, §2

For a further series, the system named is 3′TAR and 5′TAR microRNA. In words: Poly-A RT-PCR of TAR microRNA in TZM-bl cells with or without TSA. Type of series: cell-based, HIV-1. The conditions noted are these: for 3′ TAR microRNA amount: non-TSA treated TZM-bl cells, Flavopiridol 50 nm, CR8 100 nm, CR8#13 100 nm. How it is done:
RNA was extracted 48 hrs-post drug treatment. 500 ng of RNA from the microRNA-enriched fraction was used to generate cDNA using the Quantimir kit (SBI) in order to poly adenylate small RNA species. RT reactions were performed followed by PCR in which a universal reverse primer was provided by the manufacturer. Specific microRNA forward primers are identical in sequence to the microRNA of interest. PCR products corresponding to the amplified microRNAs were separated in a 3.5% (w/v) agarose gel. The PCR products are at around 67 bp as compared with the Fermentas 1 kb DNA Plus Ladder. Increased levels of 3′TAR microRNA were produced post CR8#13 treatment.
For poly-A RT-PCR detection of microRNAs, 500 ng of RNA from the microRNA-enriched fraction was used to generate cDNA using the Quantimir kit (SBI) according to the manufacturer's protocol. Briefly, small RNA species are poly-adenylated and then reverse transcription reactions are performed with a company-provided RT primer. For PCR, a universal reverse primer is provided by the manufacturer. Specific microRNA forward primers are identical in sequence to the microRNA of interest. PCR products corresponding to the amplified microRNAs were separated in a 3.5% (w/v) agarose gel and quantified using the Kodak 1D software.
To determine whether the cdk inhibitors Flavopiridol, CR8, and CR8#13 increased levels of TAR microRNA in the TSA-treated and control TZM-bl cells total RNA was extracted from both TSA treated and control cells treated with Flavopiridol, CR8, and CR8#13 and processed for RT-PCR detection of microRNAs, specifically, for the presence of 3′TAR and 5′TAR molecules.

Series [4] deals with uninfected CEM, Jurkat T-cells, and U937 cells. In words: MTT assay, uninfected cells. In kind it is cell-based. How it is done:
(§3) FIGS. 1 and 2 show screening results of CR8 derivatives on Tat-dependent transcription HIV-1 LTR. […] TZM-bl cells were transfected with 1 ug of Tat and treated the next day with DMSO, or the indicated CR8 derivative compounds at 50 nm. 48 hrs-post drug treatment, luciferase activity of the firefly luciferase was measured with the BrightGlo Luciferase Assay and luminescence was read from a 96 well plate on an EG&G Berthold luminometer. Assays were performed in triplicate, average and standard deviations are shown.
Quantitative MTT assays were performed (FIG. 2), to further validate the cell growth inhibitory activity of certain Formula I compounds. In this study, cultured, infected ACH2, J1.1, OM10.1, U1 and uninfected CEM, Jurkat T-cells, and U937 cells were brought in contact with Formula I compounds CR8, MRT-033, and BJFP1154 (CR8#13). Cell growth inhibition study was performed at two different concentrations of the inventive compounds, a low concentration of 50 nm, and high concentration of 10 μM.
Background: Tetrazolium dyes change colour on reduction, which living cells bring about.

Series [5] deals with HIV-1 infected and uninfected cells. The series can be described thus: Classification of inhibitors by effect on viability of infected versus uninfected cells. Type of series: cell-based. The following applies: high. The source says: The inhibitors were classified into three categories: high, moderate or poor, according to their effect on cellular viability in both HIV-1 infected and uninfected cells. Among the compounds tested in this study, CR8, a purine analog bearing a 2-pyridyl group para to the phenyl ring position 6 of the purine was the most promising drug candidate that killed HIV-1 infected cells, while having little or no effect on the death of uninfected cells.

Another series concerns HIV-1 LTR-CAT reporter. In words: CAT assay of Tat-mediated transactivation in HCT116 WT and Dicer-/- cells. Type of series: cell-based. The conditions noted are these: HCT116 WT (Dicer) versus Dicer-/-; 48 hrs; Flavopiridol, CR8#13, F07#13 100 nm, 9AA 1000 nm. How it is done: Six hours later, the transfected cells were treated with DMSO, Flavopirodol (100 nm), CR8#13 (100 nm), F07#13 (100 nm), and 9AA (1000 nm). Treated cells were incubated in complete DMEM for 48 hrs at 37° C. Cells were harvested and cell extracts were used for CAT analysis. One tenth the amount of HCT116 Dicer−/−extract compared to HCT116 WT was used for CAT analysis. […] The corresponding bar graphs in A and B show values that represent the percentage of conversion of the [14C] chloramphenicol substrate in the CAT assay.
Various cells lines were transfected with the HIV-1 LTRCAT plasmid and pc-Tat to initiate the LTR transcription, and subsequently subjected to various drug treatments. After 48 hrs, cells were lysed and CAT assays were performed as previously described (Guendel et al, 2009; Van Duyne et al, 2008; Easley et al, 2010).
To evaluate the role on microRNA machinery in inhibition of viral transcription activity, HCT116 colon carcinoma cell lines that either contained a WT Dicer (HCT116 WT) or lacked the Dicer protein (HCT116 Dicer-−/−) were first transfected with the HIV-1 LTR-CAT reporter construct. The HIV-1 LTR transcription was activated with pc-Tat and following incubation for 6 hours was treated with DMSO (negative control), Flavopiridol (positive control), CR8#13, F07#13, or 9AA.
Cells were harvested 48 hrs-post treatment and processed for CAT assays (FIGS. 3A and B). […] Based on this observation the inventors hypothesize that the microRNA machinery, Dicer and Drosha, plays an inhibitory role in HIV-1 transcription.

A further series relates to HIV-1 LTR. In words: Luciferase assay of Tat-dependent HIV-1 LTR transcription in TZM-bl cells. In kind it is cell-based. The following applies: TZM-bl cells transfected with Tat, 50 nm, 48 hrs. How it is done: as §3
TZM-bl cells were transfected with pc-Tat (0.5 μg) using Attractene reagent (Qiagen) according to the manufacturers' instructions. Twenty-four hours later, cells were treated with DMSO or the indicated compound. Forty-eight hours-post drug treatment, luciferase activity of the firefly luciferase was measured with the BrightGlo Luciferase Assay (Promega).
These cells were brought into contact with 18 Formula I compounds.
Briefly, the addition of Tat protein enables activated transcription of HIV-1 promoter driving luciferase in these cells. Treated cells were assayed at 48 hrs after Tat transfection and drug treatment.

Turning to `CC[C@@H](CO)Nc1nc(NCc2ccc(-c3ccccn3)cc2)c2ncn(C(C)C)c2n1` [CR8], the inhibition at 10 µM in series [1] (Human immunodeficiency virus 1, 48 h, read-out: % Inhibition (percent dead cells) OM10.1) was determined as 75%; in series [2] (Human immunodeficiency virus 1, 48 h, read-out: % Inhibition (percent dead cells) U1), 90%; in series [3] (Human immunodeficiency virus 1, 48 h, read-out: % Inhibition (percent dead cells) J1.1) it was 75%. In addition, in the series with 3′TAR and 5′TAR microRNA (TZM-bl cells treated with TSA for 7 days, then drug), the “3′ and 5′ TAR microRNA amount” value was “higher amounts of both 3′ and 5′ TAR microRNA”. Moreover, in the series on 3′TAR and 5′TAR microRNA, the “3′ TAR microRNA amount” value is “significantly increased amount of the 3′ TAR microRNA”. In addition, the “cell inhibition of uninfected cells (MTT)” value in series [4] (50 nm and 10 μM) was “some cell inhibition activity of uninfected cells”. For the same molecule, in series [5] (10 μM, moderate or poor by effect on viability of infected and uninfected cells), the Selectivity result is “High”.

Turning to `CC(C)c1cnn2c(NCc3ccc(-c4ccccn4)cc3)nc(NC[C@H](O)CO)nc12.O=C(O)/C=C/C(=O)O` [BJFP1154], the “Inhibition Percentage OM10.1” value in series [1] (50 nM, 48 hrs, HIV-1 infected) was “− (1-5%)”. The “Inhibition Percentage U1” value in series [2] (50 nM, 48 hrs, HIV-1 infected) is “− (1-5%)”. Moreover, in series [3] (50 nM, 48 hrs, HIV-1 infected), the “Inhibition Percentage J1.1” value was “− (1-5%)”. Also, in the series with 3′TAR and 5′TAR microRNA, the “3′ TAR microRNA amount” value is “significantly increased amount of the 3′ TAR microRNA”. In addition, in series [4] (high concentration of 10 μM), the “death of uninfected cells (MTT)” value was “marginal, if any death of uninfected cells”. In the series with HIV-1 LTR-CAT reporter, the “inhibition of viral transcription (CAT)” value is “inhibited viral transcription significantly better in cells that contained Dicer”. The “inhibition of HIV-1 LTR transcription (luciferase)” value with HIV-1 LTR is “greatest transcriptional inhibition; also recorded: significant inhibition of HIV-1 transcription”. Also, the Selectivity result in series [5] (50 nM, moderate or poor) is recorded as “Poor”.
